Converted amounts (≈) assume the structure as drawn. Like-named read-outs stand apart in the source and are kept apart here.
Legend:
hCA I = hCA I (Homo sapiens, UniProt P00915); experiment: CA inhibition, esterase method (4-nitrophenylacetate hydrolysis)
Protocol: (§1) Stock solutions of inhibitor (1 mM) are prepared in distilled-deionized water with 10-20% (v/v) DMSO (which is not inhibitory at these concentrations) and dilutions up to 0.01 nM are done thereafter with distilled-deionized water. Inhibitor and enzyme solutions are preincubated together for 10 min at room temperature prior to assay, in order to allow for the formation of the E-I complex.

bCA IV = biological target: T1, bCA IV (Bos taurus, UniProt Q95323); experiment: as above
T1 sequence (Q95323 19-284): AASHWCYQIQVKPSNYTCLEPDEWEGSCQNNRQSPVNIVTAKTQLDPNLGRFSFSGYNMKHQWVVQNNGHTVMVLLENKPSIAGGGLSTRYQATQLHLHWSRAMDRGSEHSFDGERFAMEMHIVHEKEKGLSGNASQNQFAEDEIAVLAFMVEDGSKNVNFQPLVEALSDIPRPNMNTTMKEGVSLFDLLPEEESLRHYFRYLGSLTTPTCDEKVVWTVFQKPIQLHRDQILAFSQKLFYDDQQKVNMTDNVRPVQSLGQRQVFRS
Protocol: as §1

hCA II = hCA II (Homo sapiens, UniProt P00918); experiment: as above
Protocol: as §1

[1] = solubility in aqueous buffer (UV of saturated solution); conditions: 25 °C, pH 7.4, aqueous buffer, thermodynamic from solid
Protocol: The determination of solubility in aqueous buffer is performed as follows. […] The UV absorption maximum of each compound is determined (with a Cary 3 spectrophotometer) eventually diluting the solution (with MeOH) as necessary. […] The obtained saturated solution is filtered in order to remove solid compound through a Millipore 0.45 µm filter and scanned by UV at the wavelength of the absorption maximum previously determined. Total solubility is determined by the relationship: C' = A'C/A, where C = concentration of standard solution (mg/mL); A = absorbance of standard solution; A' = absorbance of the saturated solution; C' = concentration of the saturated solution (mg/mL).

[2] = transcorneal penetration of drugs (in vitro corneal permeability); conditions: rate constant of transfer across excised rabbit cornea, pH 7.4; for kin x 10^3 (hr^-1) No epithelium: denuded epithelium; for kin x 10^3 (hr^-1) Cornea intact: intact epithelium
Protocol: The determination of transcorneal penetration of drugs is performed as follows. […] Excised rabbit corneas with either intact or denuded epithelium are used in these experiments. The pH is 7.4 and exposed area is 1.2 cm^2. Concentrations of drug of 40 - 2000 µM are placed in the epithelial chamber and samples of fluid are collected from the endothelial chamber at different intervals, up to 4 hr.

[3] = chloroform-buffer partition coefficient; type: physicochemical; conditions: pH 7.4 phosphate buffer, B compounds as sodium salts
Protocol: The determination of partition coefficient is performed as follows. Chloroform - buffer partition coefficients are obtained by equilibrating the test compound between chloroform and 0.1-ionic strength pH 7.4 phosphate buffer. The concentration in each phase is determined by UV spectrophotometry or HPLC.

[4] = test system: IOP of normotensive rabbits; experiment: tonometric measurement of IOP after topical administration; type: in vivo, New Zealand albino rabbits; conditions: topical 2% solution (Fig. 2)
Protocol: Tonometric measurement of IOP are performed as follows.
Adult male New Zealand albino rabbits weighing 3-3.5 kg are used in the experiments. Three animals are used for each inhibitor studied. The experimental procedures conform to the Association for Research in Vision and Ophthalmology Resolution on the use of animals. The rabbits are kept in individual cages with food and water provided ad libitum and maintained on a 12 h light/dark cycle in a temperature controlled room, at 22-26 °C. Solutions and suspensions of inhibitors (2 %, by weight, as hydrochlorides, or sodium carboxylates) are made in distilled deionized water. The pH of these solutions is in the range of 5.5 - 7.4.
IOP is measured using a Digilab 30R pneumatonometer (BioRad, Cambridge, MA, USA) as described by Maren et al. (Maren et al., Exp. Eye Res. 55:73-79, 1992; Brechue et al., Invest. Ophthalmol. Vis. Sci. 34:2581-2587,1993). The pressure readings are matched with two-point standard pressure measurements at least twice each day using a Digilab Calibration verifier. All IOP measurements are done by the same investigator with the same tonometer. One drop of 0.2 % oxybuprocaine hydrochloride (novesine, Sandoz) diluted 1:1 with saline is instilled in each eye immediately before each set of pressure measurements. IOP is measured three times at each time interval, and the means reported. IOP is measured first immediately before drug administration, then at 30 min after the instillation of the pharmacological agent, and then each 30 minutes for a period of 4-6 hours. For all IOP experiments drug is administered to only one eye, leaving the contralateral eye as an untreated control. The ocular hypotensive activity is expressed as the average difference in IOP between the treated and control eye, in this way minimizing the diurnal, seasonal and inter-individual variations commonly observed in the rabbit (Id.). All data are expressed as mean ± SE. Ocular hypertension is elicited in the right eye of albino rabbits by the injection of α-chymotrypsin (from Sigma) as described by Sugrue et al. (Sugrue et al., Br. J. Pharmacol. 99:59-64, 1990). The IOP of operated animals is checked after approximately four weeks, and animals with an elevated pressure of 30-36 mm Hg are used at least one month after the injection of α-chymotrypsin.
In vivo IOP lowering experiments are done in normotensive and glaucomatous rabbits, with many of the new compounds reported here, due to their strong CA II and CA IV inhibitory properties, such as B7, B10-B13, B15, B18-B22, B25, B27, B28, B33, B37, and A40. […] Measurements are at 30, 60 and 90 min after administration Table 3.

hCA I, sequence (P00915 whole entry): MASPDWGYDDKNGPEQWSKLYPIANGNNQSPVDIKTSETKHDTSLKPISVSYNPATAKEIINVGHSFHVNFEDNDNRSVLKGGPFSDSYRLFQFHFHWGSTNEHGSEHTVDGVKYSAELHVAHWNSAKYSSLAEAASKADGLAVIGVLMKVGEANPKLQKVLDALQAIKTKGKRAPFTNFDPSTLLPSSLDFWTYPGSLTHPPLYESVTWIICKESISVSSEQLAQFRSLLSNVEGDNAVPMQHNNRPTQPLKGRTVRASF

| Structure (SMILES) | Ki (hCA I) [nM] | Ki (bCA IV) [nM] | Ki (hCA II) [nM] | further results |
| --- | --- | --- | --- | --- |
| NS(=O)(=O)c1ccc(CNC(=S)N2CCCC2C(=O)NCC(=O)NCC(=O)O)cc1 (stereo not drawn) [B46] | 22 | 8 | 3 |  |
| NS(=O)(=O)c1ccc(CNC(=S)NC(CS)C(=O)O)cc1 (stereo not drawn) [B22] | 21 | 8 | 3 | solubility ([1]; phosphate buffer): 65 mM (≈ 22.7 mg/mL); kin x 10^3 (hr^-1) No epithelium [2]: 0.9 hr^-1; kin x 10^3 (hr^-1) Cornea intact [2]: 0.4 hr^-1; Log P [3]: 0.124 |
| NS(=O)(=O)c1ccc(CNC(=S)NCCC(=O)NC(Cc2cnc[nH]2)C(=O)O)cc1 (stereo not drawn) [B40] | 22 | 9 | 4 | solubility at 3 h [1]: 57 mM (≈ 25.9 mg/mL); kin x 10^3 (hr^-1) No epithelium [2]: 5.9 hr^-1; kin x 10^3 (hr^-1) Cornea intact [2]: 2.8 hr^-1; Log P [3]: 0.933 |
| NS(=O)(=O)c1ccc(CNC(=S)NCC(=O)NCC(=O)O)cc1 [B39] | 50 | 26 | 13 |  |
| CC(=O)/N=c1/sc(S(N)(=O)=O)nn1C [Methazolamide, methazolamide, reference compound] |  |  |  | kin x 10^3 (hr^-1) No epithelium [2]: 13 hr^-1; kin x 10^3 (hr^-1) Cornea intact [2]: 1.90 hr^-1; Log P [3]: 0.06 |
| NC(=O)CCC(NC(=S)NCc1ccc(S(N)(=O)=O)cc1)C(=O)O (stereo not drawn) [B30] | 36 | 21 | 9 |  |
| NS(=O)(=O)c1ccc(CNC(=S)NCC(=O)O)cc1 [B14, 1-(4-Sulfamoylphenylmethyl)-3-(carboxymethyl)-thiourea] | 56 | 34 | 17 |  |
| NS(=O)(=O)c1ccc(CNC(=S)NC(Cc2c[nH]c3ccccc23)C(=O)O)cc1 (stereo not drawn) [B36] | 42 | 17 | 9 |  |
| NS(=O)(=O)c1cc(Cl)c(Cl)c(S(N)(=O)=O)c1 [Dichlorophenamide 6, dichlorophenamide, reference compound] |  |  |  | Ki (bCA IV; read-out: KI (nM) bCA IV, From bovine lung microsomes, by the esterase method, pH 7.40, 25°C): 380 nM |
| CCOc1ccc2nc(S(N)(=O)=O)sc2c1 [Ethoxzolamide, ethoxzolamide, reference compound] |  |  |  | solubility at 3 h ([1]; phosphate buffer): 0.04 mM (≈ 0.0103 mg/mL); Log P [3]: 1.40 |
| NS(=O)(=O)c1ccc(CN=C=S)cc1 [B, 4-isothiocyanatomethyl-benzenesulfonamide] | 4300 | 270 | 162 |  |
| CC(C)CC(NC(=S)NCc1ccc(S(N)(=O)=O)cc1)C(=O)NCC(=O)O (stereo not drawn) [B44] | 20 | 11 | 4 |  |
| NS(=O)(=O)c1ccc(CNC(=S)NCCc2c[nH]cn2)cc1 [B10, 1-(4-Sulfamoylphenylmethyl)-3-[(1H-imidazol)-4-yl-ethyl]-thiourea] | 88 | 52 | 30 |  |
| CC(O)C(NC(=S)NCc1ccc(S(N)(=O)=O)cc1)C(=O)O (stereo not drawn) [B21] | 24 | 13 | 2 |  |
| NS(=O)(=O)c1ccc(CNC(=S)NC(Cc2cnc[nH]2)C(=O)NCC(=O)O)cc1 (stereo not drawn) [B41] | 12 | 5 | 1 |  |
| NS(=O)(=O)c1ccc(CNC(=S)NC(CC(=O)O)C(=O)NC(CC(=O)O)C(=O)O)cc1 (stereo not drawn) [B45] | 37 | 25 | 12 |  |
| CCC(C)C(NC(=S)NCc1ccc(S(N)(=O)=O)cc1)C(=O)O (stereo not drawn) [B26, 1-(4-Sulfamoylphenylmethyl)-3-(1-carboxy-2-methyl-butyl)-thiourea] | 18 | 8 | 4 |  |
| NS(=O)(=O)c1ccc(CNC(=S)NC(CC(=O)O)C(=O)NC(CC(=O)O)C(=O)NC(CC(=O)O)C(=O)NC(CC(=O)O)C(=O)O)cc1 (stereo not drawn) [B47] | 51 | 24 | 9 |  |
| NC(=O)CC(NC(=S)NCc1ccc(S(N)(=O)=O)cc1)C(=O)O (stereo not drawn) [B28] | 22 | 9 | 5 | IOP returns to baseline values after ... from administration [4]: 5 to 6 h |
| NS(=O)(=O)c1ccc(CNC(=S)NC(C(=O)O)c2ccccc2)cc1 (stereo not drawn) [B18] | 40 | 12 | 5 | solubility ([1]; phosphate buffer): 59 mM (≈ 22.4 mg/mL); kin x 10^3 (hr^-1) No epithelium [2]: 12.0 hr^-1; kin x 10^3 (hr^-1) Cornea intact [2]: 5.6 hr^-1; Log P [3]: 3.721 |
| CSCCC(NC(=S)NCc1ccc(S(N)(=O)=O)cc1)C(=O)O (stereo not drawn) [B23] | 19 | 10 | 3 |  |

| Structure (SMILES) | Ki (hCA I) [nM] | Ki (bCA IV) [nM] | Ki (hCA II) [nM] | further results |
| --- | --- | --- | --- | --- |
| N=C(N)NCCCC(NC(=S)NCc1ccc(S(N)(=O)=O)cc1)C(=O)O (stereo not drawn) [B38] | 103 | 56 | 18 |  |
| NS(=O)(=O)c1ccc(CNC(=S)NC(Cc2ccc(O)cc2)C(=O)O)cc1 (stereo not drawn) [B34] | 24 | 9 | 3 |  |
| NCCCCC(NC(=S)NCc1ccc(S(N)(=O)=O)cc1)C(=O)O (stereo not drawn) [B37] | 73 | 34 | 10 |  |
| NS(=O)(=O)c1ccc(CNC(=S)NCCc2ccccn2)cc1 [B8] | 120 | 75 | 38 |  |
| CC(=O)Nc1nnc(S(N)(=O)=O)s1 [Acetazolamide, acetazolamide, reference compound] |  |  |  | kin x 10^3 (hr^-1) No epithelium [2]: 7.0 hr^-1; kin x 10^3 (hr^-1) Cornea intact [2]: 0.37 hr^-1 |
| CC(C)C(NC(=S)NCc1ccc(S(N)(=O)=O)cc1)C(=O)O (stereo not drawn) [B24] | 20 | 9 | 4 |  |
| NS(=O)(=O)c1ccc(CNC(=S)NC(Cc2ccc(O)c(O)c2)C(=O)O)cc1 (stereo not drawn) [B35] | 30 | 14 | 6 |  |
| NS(=O)(=O)c1ccc(CNC(=S)NC(Cc2cnc[nH]2)C(=O)O)cc1 (stereo not drawn) [B32] | 33 | 14 | 6 |  |
| NS(=O)(=O)c1ccc(CNC(=S)NC(CC(=O)O)C(=O)O)cc1 (stereo not drawn) [B27] | 27 | 15 | 7 |  |
| CC(NC(=S)NCc1ccc(S(N)(=O)=O)cc1)C(=O)O (stereo not drawn) [B15] | 48 | 29 | 10 |  |
| NS(=O)(=O)c1ccc(CNC(=S)NCCC(=O)O)cc1 [B16] | 39 | 28 | 8 |  |
| NS(=O)(=O)c1ccc(CNC(=S)N2CCCC2C(=O)O)cc1 (stereo not drawn) [B31] | 89 | 55 | 21 |  |
| NS(=O)(=O)c1ccc(CNC(=S)NCCc2ccccc2)cc1 [B9] | 126 | 76 | 39 |  |
| NS(=O)(=O)c1ccc(CNC(=S)NCCCC(=O)O)cc1 [B17] | 40 | 27 | 10 |  |
| CC(C)CC(NC(=S)NCc1ccc(S(N)(=O)=O)cc1)C(=O)O (stereo not drawn) [B25] | 17 | 11 | 3 |  |
| NS(=O)(=O)c1ccc(CNC(=S)NCc2ccccn2)cc1 [B7] | 124 | 74 | 43 |  |
| NS(=O)(=O)c1ccc(CNC(=S)NC(CCC(=O)O)C(=O)O)cc1 (stereo not drawn) [B29] | 39 | 23 | 10 |  |
| NS(=O)(=O)c1ccc(CNC(=S)NC(Cc2ccccc2)C(=O)O)cc1 (stereo not drawn) [B33, 1-(4-Sulfamoylphenylmethyl)-3-(1-carboxy-2-phenyl-ethyl)-thiourea] | 27 | 14 | 5 |  |
| CC(NC(=S)NCc1ccc(S(N)(=O)=O)cc1)C(=O)NC(Cc1ccccc1)C(=O)O (stereo not drawn) [B43] | 21 | 10 | 3 |  |
| NS(=O)(=O)c1ccc(CNC(=S)NC(Cc2cnc[nH]2)C(=O)NC(Cc2ccccc2)C(=O)O)cc1 (stereo not drawn) [B42] | 19 | 7 | 2 |  |

From patent publication EP1421935A1 (Casini, Angela, priority 2002, dated 2004)
